# Source: patent publication US9901637B2, “Vitamin D3 and analogs thereof for treating alopecia” (priority 2009, dated 2018)
# Read-outs that look alike come from different tables or passages of the source.
# Tests used:
# [1] = test system: HEKa cells; assay: Pretreatment of cells with calcitriol, cell viability assay with chemotherapy drugs; assay type: cell-based, human
# Source text: Then these pretreated cells were utilized to set up the cell-based assay. […] The four cancer cell lines continued to grow and were not altered in their general morphological appearances. […] For this cell line, a new batch of cells were started and were exposed to only a single passage in the presence of calcitriol, prior to testing in the presence of the chemotherapy drugs. Three commonly used chemotherapy drugs (doxorubicin, cisplatin and erlotinib) were selected to evaluate calcitriol treated cells. […] In these experiments, the commercial drugs were serially diluted, starting at a concentration 4-times higher than the final desired concentration for cell incubation. […] The assay was carried out according to the previously described method in order to provide consistency and allow direct comparison. The result was based upon measurement of the total number of viable cells. […] Thus, a topical application of calcitriol could be applied at the same time as the systemic delivery of the chemotherapy. A staged application is not required.
# [2] = test system: MIAC51; assay: Survival (cure) rate of chloroleukemic rats after two rounds of chemotherapy; assay type: in vivo, Long Evans Rats
# Experimental: Animals were then randomized in four groups. All rats received MIAC51 as described below.
# On day 5 after birth all rats received 1×105 MIAC51 intraperitoneally in 0.1 ml of serum free (SF) RPMI. MIAC51 were cultured in RPMI 1640 supplemented with L-glutamine and 10% fetal bovine serum at […] in a 5% CO2, 100% humidity incubator. Cells were grown to 50% confluency (1.5×106 ml) collected in 50 ml conical tubes, centrifuged at 600 g for 10 minutes at room temperature and resuspended in SF-RPMI at a concentration of 1×10^6/ml prior to injection.
# [3] = test system: NIH-3T3 (immortalized fibroblast); assay: Cell growth/viability assay, calcitriol with or without chemotherapy drug; assay type: cell-based
# [4] = test system: Primary human epidermal keratinocytes (HEKa); assay: Real-time PCR array, Heat Shock Protein Array, calcitriol-treated HEKa; assay type: cell-based; settings: HEKa cells, 0.1 μg/mL calcitriol
# Experimental: Changes in mRNA levels were evaluated using real-time PCR quantification to assess mRNA levels in preselected subsets containing 80 pathway specific targets (see Appendix). The PCR array analysis utilized two groups of genes—those related to Heat Shock Proteins (SABiosciences), and those related to Neuroscience Ion Channels and Transporters (SABioscience). Primary human epidermal keratinocytes (HEKa) were maintained in Epilife Medium (Cascade Biologics, Inc., Portland Oreg.) along with Human Keratinocyte Growth Supplement (Cascade Biologics, Inc., Portland Oreg.). […] Vehicle control group of cells were treated with 5 mL media containing 1 μL of ethanol. Cells were harvested 3, 6, 16, 24, 48, or 72 hours after the start of the treatment. Cells were lysed for RNA isolation at different treatment times using the RNeasy Mini kit (Qiagen, Inc., Valencia Calif.) following the manufacturer's instructions. RNA was quantified by measuring optical density at 260 nm. First Strand Synthesis: […] Products from the first strand synthesis were diluted with water, mixed with the SYBR green master mix (SABiosciences, Frederick Md.) and loaded onto PCR arrays. Real time PCR was run on the PCR Arrays (Heat Shock Protein Arrays, and Neuroscience and Ion Channel Arrays) (SABiosciences, Frederick Md.) on a Biorad CFX96. Data analyses were performed using the PCR array data analysis software available on the SABiosciences website.
# [5] = test system: HEKa cells; assay: Proteomic analysis (2-D gel electrophoresis) of calcitriol-treated HEKa; assay type: cell-based, human; settings: 0.1 μg/mL calcitriol
# Experimental: The cell pellets were then analyzed using proteomic methods, such as 2-D gel and Western blot analysis. […] In all, analysis of about 458 protein spots in the comparative study was performed, comparing the control sample against the 3-, 6-, and 24-hour treatment samples. Six spots showing statistically significant differential changes were identified. These spots were excised, and their protein contents subjected to sequence identification by trypsin digestion and mass spectrometry characterization.
# [6] = test system: chemotherapy-induced alopecia (CIA); settings: for protection from etoposide-induced alopecia: etoposide 1.5 mg/kg daily for 3 days
# Experimental: Specifically, Long Evans and Sprague Dawley rats with pups were purchased from Harlan Laboratories, Inc. They were housed and fed according to applicable animal handling rules and regulations. Pups were allowed to acclimate for 48 hours prior to the start of experiments. […] Rats were isolated from their littermates and mother for 6-hour periods of time. Subsequently, the treated area was cleaned with soap and water and pups were returned to their litters. On day 13, rats either received etoposide (1.5 mg/kg daily for 3 days) or cyclophosphamide (CTX) (37.5 mg/kg once) or combination cyclophosphamide (35 mg/kg once) and doxorubicin (2.5 mg/kg daily for 3 days). All chemotherapies were purchased from Sigma and were given intraperitoneally (i.p.) in a total volume of 0.1 mL. Alopecia was recorded 10 days after the last dose of chemotherapy.
# [7] = test system: NCI-ES-0808; assay: Cell growth/viability assay, calcitriol with or without chemotherapy drug; assay type: cell-based
# [8] = test system: SkBr-3 (breast adenocarcinoma cancer, Her2 overexpressed); assay: as above; assay type: cell-based
# [9] = test system: MIAC51 (chloroleukemia cells); assay: Rats transplanted with chloroleukemia: protection of cancer cells from chemotherapy; assay type: in vivo; settings: Long Evans rats injected with MIAC51, cyclophosphamide; preliminary results
# Experimental: For experiments in which rats were transplanted with chloroleukemia, on Day 5 after birth, rats were randomly divided into three groups of 45 each. All rats received 1×10^5 chloroleukemic cell line MIAC51 (i.p.) in 0.1 mL of serum free (SF) RPMI. MIAC51 were cultured in RPMI 1640 supplemented with L-glutamine and 10% fetal bovine serum at 37° C. in a 5% CO2, 100% humidity incubator. Cells were grown to 50% confluency (1.5×106 mL) collected in 50 mL conical tubes, centrifuged at 600 g×10 min. at room temperature and resuspended in SF-RPMI at a concentration of 1×10^6/mL. Group 1 rats received no further treatment. Group 2 rats received topical vehicle and CTX on day 13. […] Topical applications were performed as described above.
# On day 23 after birth, a sample of blood was taken from all rats and differentials performed. Rats with leukemia were sacrificed, rats without leukemia were kept and a second differential performed on day 31, at any point if leukemia was detected, animals were sacrificed by CO2 asphyxiation.
smiles,measurement,setting,value
"C=C1/C(=C\C=C2/CCC[C@]3(C)[C@@H]([C@H](C)CCCC(C)(C)O)CC[C@@H]23)C[C@@H](O)C[C@@H]1O [Calcitriol, 1,25-dihydroxyvitamin D3]",growth of HEKa cells after prolonged calcitriol exposure,[1]; 0.1 μg/mL calcitriol for two cell passages,stopped growing
same,"chemoprotective effect, pre-treatment group versus simultaneous treatment group","[1]; 0.1 μg/mL calcitriol, doxorubicin, cisplatin, erlotinib",nearly identical
same,interference with the cure rate,"[2]; cyclophosphamide and doxorubicin group, cure rate in the range of 50-55%",did not interfere with the cure rate
same,interference with the cure rate,"[2]; cyclophosphamide group, cure rate in the range of 20-25%",did not interfere with the cure rate
same,interference with the cure rate,"[2]; cyclophosphamide, doxorubicin and cytarabine group, cure rate in the range of 75-80%",did not interfere with the cure rate
same,interference with the cure rate,"[2]; cyclophosphamide, paclitaxel and etoposide group, cure rate in the range of 78-83%",did not interfere with the cure rate
same,interference with the cure rate,"[2]; doxorubicin, paclitaxel and etoposide group, cure rate in the range of 80-83%",did not interfere with the cure rate
same,effect of calcitriol on cell growth,[3],no significant growth promoting or growth inhibiting effects
same,effect on the cytotoxic effect of Doxorubicin,[3],did not appear to appreciably alter
same,HSPB1 (Heat shock 27 kDa protein 1) mRNA Regulation Pattern,[4]; regulated in two independent experiments,Down regulated at 48 hours
same,"DNAJC6 (DnaJ (Hsp40) homolog, subfamily C, member 6) mRNA Regulation Pattern",[4]; two independent experiments,Downregulated
same,HSF4 (Heat shock transcription factor 4) mRNA Regulation Pattern,[4]; two independent experiments,Upregulated at 48 hours
same,HSPA2 (Heat shock 70 kDa protein 2) mRNA Regulation Pattern,[4]; two independent experiments,Upregulated at 48 hours
same,Glutathione S-transferase (GST) Response,"[5]; at 3, 6, and 24 hours, 2-D gel spot 4","up at 3,"
same,S100 A13 Response,"[5]; at 6 and 24 hours, spot 14",up at
same,Galectin 1 (LGALS1) Response,"[5]; at 6 and 24 hours, spot 27",up at
same,Keratin 1 (KRT1) Response,"[5]; at 6 hours, spot 2",up at
same,dosage protective against CIA,"[6]; neonatal rat, administered as 100 μL of 2 μg/mL topical solution",about 0.2 μg
same,protection from etoposide-induced alopecia,"[6]; neonatal rats, 0.1 μg of calcitriol topical for 6 hours daily, 6 days",partial localized protection
same,protection from cyclophosphamide-induced alopecia,"[6]; neonatal rats, 0.3 μg calcitriol topical, cyclophosphamide 37.5 mg/kg once",full body protection
same,protection from etoposide-induced alopecia,"[6]; neonatal rats, 0.3 calcitriol topical",total body protection
same,effect of calcitriol on cell growth,[7],no significant growth promoting or growth inhibiting effects
same,effect on the cytotoxic effect of Doxorubicin,[7],did not appear to appreciably alter
same,effect of calcitriol on cell growth,[8],no significant growth promoting or growth inhibiting effects
same,effect on the cytotoxic effect of Doxorubicin,[8],did not appear to appreciably alter
same,protection of the cancer cells from chemotherapy by topical calcitriol,[9],have not shown protection of the cancer cells
